ChEMBL document CHEMBL1123832, “Structure-activity relationships in an imidazole-based series of thromboxane synthase inhibitors” (J Med Chem, 1987)

Each compound was assayed against T1, Thromboxane-A synthase (Homo sapiens, UniProt P24557) (assay: Compound was tested for inhibitory activity against human platelet microsomal TXA2 synthase).
T1 sequence (P24557 whole entry): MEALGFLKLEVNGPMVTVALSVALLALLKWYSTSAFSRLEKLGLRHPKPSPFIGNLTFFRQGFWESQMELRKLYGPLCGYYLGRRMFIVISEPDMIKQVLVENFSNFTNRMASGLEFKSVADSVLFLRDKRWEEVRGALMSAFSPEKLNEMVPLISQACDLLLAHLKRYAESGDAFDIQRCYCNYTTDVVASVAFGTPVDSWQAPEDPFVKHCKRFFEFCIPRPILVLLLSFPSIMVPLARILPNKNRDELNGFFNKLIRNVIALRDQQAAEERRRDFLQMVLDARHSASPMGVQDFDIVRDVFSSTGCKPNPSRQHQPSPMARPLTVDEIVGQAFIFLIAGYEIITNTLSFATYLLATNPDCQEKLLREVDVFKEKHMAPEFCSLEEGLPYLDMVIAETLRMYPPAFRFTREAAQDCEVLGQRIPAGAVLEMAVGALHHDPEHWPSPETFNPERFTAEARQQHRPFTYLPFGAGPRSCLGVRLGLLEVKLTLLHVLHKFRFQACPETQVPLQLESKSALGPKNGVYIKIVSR

Going from `CCOC(=O)c1ccc(COC(COCc2ccc(OC)cc2)Cn2ccnc2)cc1` (stereo unspecified) to `CCCCOC(=O)c1ccc(COC(COCc2ccc(OC)cc2)Cn2ccnc2)cc1` (stereo unspecified), the IC50 falls from 5.3 µM to 2 µM (2.6-fold).

Going from `COc1ccc(COCC(Cn2ccnc2)OCc2ccc(C(=O)OCc3ccccc3)cc2)cc1` (stereo unspecified) to `COc1ccc(COCC(Cn2ccnc2)OCc2ccc(C(=O)O)cc2)cc1` (stereo unspecified), the IC50 falls from 7.1 µM to 1.1 µM (6.5-fold).

The compounds below were run against T1, Thromboxane-A synthase (assay: Tested for inhibitory activity against intact human platelet TXA2 formation).
Assay type: functional

Compared with `CCOC(=O)c1ccc(COC(COCc2ccc(OC)cc2)Cn2ccnc2)cc1` (stereo unspecified), `CCOC(=O)c1ccc(COCC(Cn2ccnc2)OCc2ccc(OC)cc2)cc1` (stereo unspecified) is 6.7-fold higher in IC50: 0.54 µM for the first, 3.6 µM for the second.

First: CCCCCCCCOC(=O)c1ccc(COC(COCc2ccc(OC)cc2)Cn2ccnc2)cc1 (stereo unspecified)
Second: CCCCOC(=O)c1ccc(COC(COCc2ccc(OC)cc2)Cn2ccnc2)cc1 (stereo unspecified)
The IC50 of the first is 100-fold higher: 21 µM for the first, 0.2 µM for the second.

Going from `CCNC(=O)c1ccc(COC(COCc2ccc(OC)cc2)Cn2ccnc2)cc1` (stereo unspecified) to `COC(=O)c1ccc(COC(COCc2ccc(OC)cc2)Cn2ccnc2)cc1` (stereo unspecified), the IC50 falls from 12.4 µM to 1.26 µM (9.8-fold).

First: CCCCN(C)C(=O)c1ccc(COC(COCc2ccc(OC)cc2)Cn2ccnc2)cc1 (stereo unspecified)
Second: COc1ccc(COCC(Cn2ccnc2)OCc2ccc(C(=O)N(C)C)cc2)cc1 (stereo unspecified)
The IC50 of the first is 2.8-fold higher: 5.4 µM for the first, 1.94 µM for the second. The second is the more potent here.

Going from `CCOC(=O)c1ccc(COCC(Cn2ccnc2)OCc2ccc(C(=O)OCC)cc2)cc1` (stereo unspecified) to `CCCOC(=O)c1ccc(COC(COCc2ccc(OC)cc2)Cn2ccnc2)cc1` (stereo unspecified), the IC50 falls from 0.7 µM to 0.18 µM (3.9-fold).

Compared with `COc1ccc(COCC(Cn2ccnc2)OCc2ccc(C(=O)Oc3ccccc3)cc2)cc1` (stereo unspecified), `COc1ccc(COCC(Cn2ccnc2)OCc2ccc(C(=O)OCc3ccccc3)cc2)cc1` (stereo unspecified) is 2.7-fold higher in IC50: 0.56 µM for the first, 1.49 µM for the second.

`CCOC(=O)c1cccc(COC(COCc2ccc(OC)cc2)Cn2ccnc2)c1` (stereo unspecified) and `COc1ccc(COCC(Cn2ccnc2)OCc2ccc(C(N)=O)cc2)cc1` (stereo unspecified) are within 1.5-fold of each other in IC50: 7.2 µM for the first, 6 µM for the second.

Compared with `COc1ccc(COCC(Cn2ccnc2)OCc2ccc(S(C)(=O)=O)cc2)cc1` (stereo unspecified), `COc1ccc(COCC(Cn2ccnc2)OCc2ccc([S+](C)[O-])cc2)cc1` (stereo unspecified) is 2.9-fold lower in IC50: 24.9 µM for the first, 8.6 µM for the second. The second is the more potent here.

First: COc1ccc(COCC(Cn2ccnc2)OCc2ccc(C(=S)N(C)C)cc2)cc1 (stereo unspecified)
Second: COc1ccc(COCC(Cn2ccnc2)OCc2ccc(C(=O)O)cc2)cc1 (stereo unspecified)
The IC50 of the first is 1.9-fold higher: 12.4 µM for the first, 6.7 µM for the second. The second is the more potent here.

Going from `COc1ccc(COCC(Cn2ccnc2)OCc2ccc(OC)cc2)cc1` (stereo unspecified) to `COc1ccc(COCC(Cn2ccnc2)OCc2ccc(SC)cc2)cc1` (stereo unspecified), the IC50 falls from 9.9 µM to 6.4 µM (1.5-fold). The second is the more potent here.

Compared with `COc1ccc(COCC(Cn2ccnc2)OCc2ccc3c(c2)COC3=O)cc1` (stereo unspecified), `COc1ccc(COCC(Cn2ccnc2)OCc2ccc(C(=O)OC(C)C)cc2)cc1` (stereo unspecified) is 3.9-fold lower in IC50: 6.2 µM for the first, 1.61 µM for the second. The second is the more potent here.
